Article PMC11808539 (Bioorganic & medicinal chemistry letters, 2024)

How the values were obtained:
GSK-3 = GSK-3 inhibition, isoform not stated; format: biochemical; conditions: no activity defined as an IC50 >10μM
MAPK5/PRAK = conditions: at 2μM; cited from earlier work
[1] = test system: other kinases tested having a lysine at a position comparable to Arg141 in GSK-3β; conditions: kinases with lysine at position comparable to Arg141; at 2 μM; cited from earlier work
broad kinase screen = conditions: cited from earlier work

For `OC1(c2ccccc2)CSC(=S)N1Cc1ccccc1` (stereo not drawn) [Compound 3a], the “activity (GSK-3 inhibition, in words)” value (GSK-3) was “no activity”.

In the case of `OC1(c2ccccc2)CSC(=S)N1Cc1ccncc1` (stereo not drawn) [Compound 3c], the “activity (GSK-3 inhibition, in words)” value (GSK-3) is listed as “excellent activity”, the “% inhibition” value (MAPK5/PRAK) is listed as 60% and the “% inhibition” value [1] is listed as under 30%. The “kinase selectivity (in words)” value (broad kinase screen) was “the only kinases significantly inhibited by 3c were GSK-3β and GSK-3α”.

In the case of `OC1(c2ccccc2)CSC(=S)N1Cc1ccccn1` (stereo not drawn) [Compound 3d], the “activity (GSK-3 inhibition, in words)” value (GSK-3) is reported as “no activity”.
